# Data taken from patent US8722720B2, “Imidazole derivatives as IDO inhibitors” (NewLink Genetics Corporation, priority 2010, dated 2014).
# Target: T1, purified human IDO protein (Homo sapiens, UniProt P14902)
# T1 construct: 2 extra amino acids (linker from the BglII cloning site of pQE70); made in house; host or cells: E. coli M15(pREP4) with plasmid pQE70-hIDO
# Assay: Enzymatic IDO assay (kynurenine production, absorbance at 480 nm)
# Assay type: biochemical
# Conditions: hIDO IC50, recombinant human IDO; values reported in ranges
# Method: The inhibitors were initially diluted in DMSO at 100 mM and were diluted in potassium phosphate 50 mM, added to the reaction mixture at final concentrations raging from 1 mM to 5 nM and preincubated with the enzyme for 5 min at 25° C. The reaction was started by addition of L-tryptophan to 200 μM and incubated 15 min at 37° C. The reaction was stopped by addition of 0.5 vol of 30% trichloroacetic acid and incubated 30 min at 60° C. to hydrolyze N-formylkynurenine to kynurenine. The reaction was centrifuged at 3400 g for 5 min to remove precipitated protein and the supernatant was reacted with 2% (w/v) of p-dimethylaminobenzaldehyde in acetic acid. The reaction was incubated 10 min at 25° C. and read at 480 nm in a spectrophotometer. […] Nonlinear regressions and determination of the IC50 values were performed using the GraphPad Prism 4 software.
# T1 sequence (P14902 whole entry P110S/E119G): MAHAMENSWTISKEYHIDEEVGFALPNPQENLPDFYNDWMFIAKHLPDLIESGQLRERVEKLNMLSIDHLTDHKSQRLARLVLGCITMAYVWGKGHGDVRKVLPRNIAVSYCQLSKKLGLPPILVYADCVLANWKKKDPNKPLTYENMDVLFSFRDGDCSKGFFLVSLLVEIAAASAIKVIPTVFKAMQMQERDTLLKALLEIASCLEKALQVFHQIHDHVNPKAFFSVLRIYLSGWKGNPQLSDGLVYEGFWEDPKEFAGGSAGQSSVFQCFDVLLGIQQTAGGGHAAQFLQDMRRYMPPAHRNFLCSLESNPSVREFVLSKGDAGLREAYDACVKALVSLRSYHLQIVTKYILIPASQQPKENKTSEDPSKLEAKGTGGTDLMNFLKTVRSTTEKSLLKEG
row,SMILES,IC50 [µM]
1,"CN1CCN(C(=O)Oc2ccc(Cl)cc2-c2c[nH]cn2)CC1 [compound 1112, 4-chloro-2-(1H-imidazol-4-yl)phenyl 4-methylpiperazine-1-carboxylate]",10 to 100

# Same assay, conditions: recombinant human IDO; values reported in ranges; read-out: hIDO IC50
row,IC50 [µM],SMILES
1,10 to 100,"c1ccc(-c2c[nH]cn2)c(OCCc2ccc(N3CCCC3)cc2)c1 [compound 1225, 4-(2-(4-(pyrrolidin-1-yl)phenethoxy)phenyl)-1H-imidazole]"
2,10 to 100,"c1cc(-c2c[nH]cn2)c2nsnc2c1 [compound 962, 4-(1H-imidazol-4-yl)benzo[c][1,2,5]thiadiazole]"
3,10 to 100,"Oc1cccc(OCCCc2ccccc2)c1-c1cnc[nH]1 [compound 1010, 2-(1H-imidazol-5-yl)-3-(3-phenylpropoxy) phenol]"
4,1 to 10,"Oc1cccc(OCCc2ccc(Cl)cc2)c1-c1cnc[nH]1 [compound 1148, 3-(4-chlorophenethoxy)-2-(1H-imidazol-5-yl) phenol]"
5,1 to 10,"O=C(COc1ccccc1-c1c[nH]cn1)c1ccc2ccsc2c1 [compound 1018, 2-(2-(1H-imidazol-4-yl)phenoxy)-1-(benzo[b]thiophen-6-yl)ethanone]"
6,> 100,"COc1cccc(-c2c[nH]cn2)n1 [compound 1009, 2-(1H-imidazol-4-yl)-6-methoxypyridine]"
7,> 100,"COc1ccccc1-c1cnco1 [compound 945, 5-(2-methoxyphenyl)oxazole]"
8,10 to 100,"Oc1ccccc1-c1cnco1 [compound 1139, 2-(oxazol-5-yl)phenol]"
9,1 to 10,"Oc1cccc(OCCC2CC=CCC2)c1-c1cnc[nH]1 (centres unmarked) [compound 1182, 3-(2-(cyclohex-3-en-1-yl)ethoxy)-2-(1H-imidazol-5-yl)phenol]"
10,1 to 10,"O=C(Nc1ccc(CCOc2ccccc2-c2c[nH]cn2)c(Cl)c1)C1CCCCN1 (centres unmarked) [compound 1344, N-(4-(2-(2-(1H-imidazol-4-yl)phenoxy)ethyl)-3-chlorophenyl)piperidine-2-carboxamide]"
11,> 100,"CCOC(=O)n1cnc(-c2ccccc2)c1 [compound 1047, ethyl 4-phenyl-1H-imidazole-1-carboxylate]"
12,10 to 100,"O=C(NCc1cccc(Cl)c1)C1CCC(=CCOc2ccccc2-c2c[nH]cn2)CC1 (centres unmarked) [compound 947, 4-(2-(2-(1H-imidazol-4-yl)phenoxy)ethylidene)-N-(3-chlorobenzyl)cyclohexanecarbox-amide]"
13,1 to 10,"O=C(CC1CCOCC1)Nc1ccc(CCOc2ccccc2-c2c[nH]cn2)cc1 [compound 1211, N-(4-(2-(2-(1H-imidazol-4-yl)phenoxy)ethyl)phenyl)-2-(tetrahydro-2H-pyran-4-yl)acetamide]"
14,1 to 10,"CC(C)(C)CC(=O)Nc1ccc(CCOc2ccccc2-c2c[nH]cn2)cc1 [compound 1103, N-(4-(2-(2-(1H-imidazol-4-yl)phenoxy)ethyl)phenyl)-3,3-dimethylbutanamide]"
15,> 100,"Oc1c(-c2c[nH]cn2)cc(Cl)c2cccnc12 [compound 956, 5-chloro-7-(1H-imidazol-4-yl)quinolin-8-ol]"
16,> 100,"CC(=O)Nc1ccccc1-c1c[nH]cn1 [compound 1121, N-(2-(1H-imidazol-4-yl)phenyl)acetamide]"
17,1 to 10,"O=C(CC1CCCO1)Nc1ccc(CCOc2ccccc2-c2c[nH]cn2)cc1 (centres unmarked) [compound 1199, N-(4-(2-(2-(1H-imidazol-4-yl)phenoxy)ethyl)phenyl)-2-(tetrahydrofuran-2-yl)acetamide]"
18,1 to 10,"O=C(Nc1ccc(CCOc2ccccc2-c2c[nH]cn2)cc1)OCc1ccccc1 [compound 1136, benzyl (4-(2-(2-(1H-imidazol-4-yl)phenoxy)ethyl)phenyl)carbamate]"
19,> 100,"Oc1cccc(-c2c[nH]cn2)n1 [compound 1011, 6-(1H-imidazol-4-yl)pyridin-2-ol]"
20,1 to 10,"O=C(Cc1ncccn1)Nc1ccc(CCOc2ccccc2-c2c[nH]cn2)cc1 [compound 1227, N-(4-(2-(2-(1H-imidazol-4-yl)phenoxy)ethyl)phenyl)-2-(pyrimidin-2-yl)acetamide]"
21,1 to 10,"c1ccc(Nc2nc3ccc(CCOc4ccccc4-c4c[nH]cn4)cc3o2)cc1 [compound 1222, 6-(2-(2-(1H-imidazol-4-yl)phenoxy)ethyl)-N-phenylbenzo[d]oxazol-2-amine]"
22,< 1,"O=C(Cc1ccccc1)Nc1ccc(CCOc2ccccc2-c2cnc[nH]2)cc1 [compound 1102, N-(4-(2-(2-(1H-imidazol-4-yl)phenoxy)ethyl)phenyl)-2-phenylacetamide]"
23,< 1,"CC(=O)NC(C(=O)Nc1ccc(CCOc2ccccc2-c2c[nH]cn2)c(Cl)c1)C1CCOCC1 (centres unmarked) [compound 1337, N-(4-(2-(2-(1H-imidazol-4-yl)phenoxy)ethyl)-3-chlorophenyl)-2-acetamido-2-(tetrahydro-2H-pyran-4-yl)acetamide]"

row,IC50 [µM],SMILES
1,> 100,"O=C(O)c1ccccc1C(=O)COc1ccccc1-c1c[nH]cn1 [compound 979, 2-(2-(2-(1H-imidazol-4-yl)phenoxy)acetyl) benzoic acid]"
2,10 to 100,"CCC(O)(COc1ccccc1-c1c[nH]cn1)c1cccs1 (centres unmarked) [compound 976, 1-(2-(1H-imidazol-4-yl)phenoxy)-2-(thiophen-2-yl)butan-2-ol]"
3,10 to 100,"CC(C)(C)COC(=O)N1CCC(CCOc2ccccc2-c2c[nH]cn2)CC1 [compound 1149, neopentyl 4-(2-(2-(1H-imidazol-4-yl)phenoxy)ethyl)piperidine-1-carboxylate]"
4,> 100,"O=C(O)c1ccccc1CCOc1ccccc1-c1c[nH]cn1 [compound 1325, 2-(2-(2-(1H-imidazol-4-yl)phenoxy)ethyl) benzoic acid]"
5,< 1,"N[C@H]1CCCC[C@H]1NC(=O)Nc1ccc(CCOc2ccccc2-c2c[nH]cn2)c(Cl)c1 (racemic) [compound 1368, 1-(4-(2-(2-(1H-imidazol-4-yl)phenoxy)ethyl)-3-chlorophenyl)-3-(±(1R,2S)-2-aminocyclohexyl)urea]"
6,> 100,"COc1ncccc1-c1c[nH]cn1 [compound 1012, 3-(1H-imidazol-4-yl)-2-methoxypyridine]"
7,< 1,"O=C(CC1CCOCC1)Nc1ccc(CCOc2ccccc2-c2c[nH]cn2)c(C(F)(F)F)c1 [compound 1305, N-(4-(2-(2-(1H-imidazol-4-yl)phenoxy)ethyl)-3-(trifluoromethyl)phenyl)-2-(tetrahydro-2H-pyran-4-yl)acetamide]"
8,10 to 100,"Fc1ccc(OCCc2ccccc2)c(-c2cnc[nH]2)c1 [compound 1292, 5-(5-fluoro-2-phenethoxyphenyl)-1H-imidazole]"
9,1 to 10,"O=C(Cc1ccccc1)N1CCC(CCOc2ccccc2-c2c[nH]cn2)CC1 [compound 1186, 1-(4-(2-(2-(1H-imidazol-4-yl)phenoxy)ethyl)piperidin-1-yl)-2-phenylethanone]"
10,10 to 100,"O=C(Nc1ccc(CCOc2ccccc2-c2c[nH]cn2)cc1)NC1CCOCC1 [compound 1263, 1-(4-(2-(2-(1H-imidazol-4-yl)phenoxy)ethyl)phenyl)-3-(tetrahydro-2H-pyran-4-yl)urea]"
11,10 to 100,"c1ccc2[nH]c(-c3c[nH]cn3)cc2c1 [compound 975, 2-(1H-imidazol-4-yl)-1H-indole]"
12,1 to 10,"O=C(Cc1cccc([N+](=O)[O-])c1)Nc1ccc(CCOc2ccccc2-c2c[nH]cn2)cc1 [compound 1241, N-(4-(2-(2-(1H-imidazol-4-yl)phenoxy)ethyl)phenyl)-2-(3-nitrophenyl)acetamide]"
13,10 to 100,"O=C(COc1ccccc1-c1c[nH]cn1)c1cccc(Br)c1 [compound 953, 2-(2-(1H-imidazol-4-yl)phenoxy)-1-(3-bromo-phenyl)ethanone]"
14,10 to 100,"CC(Oc1ccccc1-c1c[nH]cn1)c1ccccc1 (centres unmarked) [compound 1045, 4-(2-(1-phenylethoxy)phenyl)-1H-imidazole]"
15,10 to 100,"O=C1CCCCN1c1ccc(CCOc2ccccc2-c2c[nH]cn2)cc1 [compound 1230, 1-(4-(2-(2-(1H-imidazol-4-yl)phenoxy)ethyl)phenyl)piperidin-2-one]"
16,1 to 10,"Clc1ccc(COc2ccccc2-c2c[nH]cn2)cc1Cl [compound 1003, 4-(2-(3,4-dichlorobenzyloxy)phenyl)-1H-imidazole]"
17,> 100,"c1cnc2c(-c3c[nH]cn3)cccc2c1 [compound 952, 8-(1H-imidazol-4-yl)quinoline]"
18,> 100,"Clc1ccc(OCc2ccccc2)c(-c2cncn2C2CCCCC2)c1 [compound 1060, 5-(2-(benzyloxy)-5-chlorophenyl)-1-cyclo-hexyl-1H-imidazole]"
19,10 to 100,"c1ccc(-c2c[nH]cn2)c(OCc2ccc3c(c2)OCO3)c1 [compound 1027, 4-(2-(benzo[d][1,3]dioxol-5-ylmethoxy)phen-yl)-1H-imidazole]"
20,10 to 100,"OC(COc1ccccc1-c1c[nH]cn1)c1cccc(Br)c1 (centres unmarked) [compound 954, 2-(2-(1H-imidazol-4-yl)phenoxy)-1-(3-bromo-phenyl)ethanol]"
21,10 to 100,"O=C(CC1CCOCC1)Nc1ccc(CCOc2ccccc2-c2c[nH]cn2)cc1Cl [compound 1297, N-(4-(2-(2-(1H-imidazol-4-yl)phenoxy)ethyl)-2-chlorophenyl)-2-(tetrahydro-2H-pyran-4-yl)acetamide]"
22,> 100,"Clc1ccc2c(-c3c[nH]cn3)ccnc2c1 [compound 969, 7-chloro-4-(1H-imidazol-4-yl)quinoline]"

row,SMILES,IC50 [µM]
1,"CC(C)(C)CCOc1ccc(O)c(-c2cnc[nH]2)c1 [compound 1107, 4-(3,3-dimethylbutoxy)-2-(1H-imidazol-5-yl) phenol]",10 to 100
